Data: article PMC4414066 (Journal of medicinal chemistry, 2015)

How the values were obtained:
hGlyR-α1 = biological target: T1, hGlyR-α1 (Homo sapiens, UniProt P23415); assay type: cell-based; conditions: for potentiation effect on the channel current (representative traces): 10 μM modulator, glycine EC5, Figure 5a; for potentiation up to the maximum tested concentration: up to 10 μM, glycine EC5
T1 sequence (P23415 29-457): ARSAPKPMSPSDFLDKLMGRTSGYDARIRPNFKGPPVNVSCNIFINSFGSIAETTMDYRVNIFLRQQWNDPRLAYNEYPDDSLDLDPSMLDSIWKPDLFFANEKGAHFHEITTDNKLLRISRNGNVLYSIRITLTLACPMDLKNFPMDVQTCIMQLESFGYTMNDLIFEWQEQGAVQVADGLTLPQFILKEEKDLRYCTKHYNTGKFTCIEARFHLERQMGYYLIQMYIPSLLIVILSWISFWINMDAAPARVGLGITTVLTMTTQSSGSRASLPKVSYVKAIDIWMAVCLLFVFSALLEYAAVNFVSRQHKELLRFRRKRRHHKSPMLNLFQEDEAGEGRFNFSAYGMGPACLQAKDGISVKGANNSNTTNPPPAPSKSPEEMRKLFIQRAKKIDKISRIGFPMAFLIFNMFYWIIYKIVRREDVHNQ

α7nAChR = conditions: previous finding; cited from earlier work

SMILES | potentiation effect on the channel current (representative traces) (hGlyR-α1) | potentiation up to the maximum tested concentration (hGlyR-α1) | effect on α7nAChR function (α7nAChR)
Cc1nc2c([nH]1)-c1ccccc1N(C(=O)c1ccc(NC(=O)c3ccccc3-c3ccccc3)cc1)CC2 [Conivaptan] | no potentiation | did not show potentiation | –
COc1cc(OC)c(NC(=O)Nc2cc(C)on2)cc1Cl [PNU-120596] | – | did not show potentiation | –
O=c1[nH]c2ccccc2n1C1CCN(CCCC(c2ccc(F)cc2)c2ccc(F)cc2)CC1 [Pimozide] | much greater potentiation effect on the channel current than THC | – | –
CCCCCc1cc(O)c2c(c1)OC(C)(C)[C@@H]1CCC(C)=C[C@@H]21 [THC, Δ^9-tetrahydrocannabinol] | – | – | little effect
